Results published in US5639751A, “N-acyl-2,3-benzodiazepine derivatives for treating acute and chronic neurodegenerative disorders” (priority 1990, dated 1997).
Read-outs that look alike come from different tables or passages of the source.

What was measured:
AMPA/kainate receptors = experiment: Inhibition of synaptic field potentials (population spikes) in rat hippocampal slices; type: cell-based; details: population spikes in CA1, after 30 min. perfusion
Experimental: Synaptic potentials in the CA1 area of hippocampus evoked by stimulation of the Schaffer collaterals are mediated by AMPA/kainate receptors. […] Lett. 92, 64 (1988)].
The inhibition of population spikes in CA1 was studied in rat hippocampal slices after 30 min. perfusion application of the test compounds.

[1] = AMPA induced spreading depression in isolated chicken retina; type: cell-based; details: AMPA (5 μM)
Experimental: (§1) Anti-kainate and -AMPA effects were investigated in the in vitro retinal spreading depression model [Brain Res. 607, 189 (1993)]. AMPA/kainate antagonists prolong the latency of the development of spreading depression evoked. by kainate (5 μM), or AMPA (5 μM). In some cases the effect on spreading depression evoked by 100 μM NMDA was also studied to clarify the selectivity.

[2] = Kainate induced spreading depression in isolated chicken retina; type: cell-based; details: kainate (5 μM)
Experimental: as §1

male CFLP mice [3] = experiment: Anticonvulsive effect in mice, electroshock test; type: in vivo; details: Mus musculus, po, read-out: ED50 p.o., ES (electroshock)
Experimental: (§2) The anticonvulsive effect of the compounds of the formula (I) was measured by using the electroshock test [J. Pharmacol. Exp. Ther. 106, 319 (1952)], furthermore by using various chemical agents such as pentetrazole [J. Pharmacol. Exp. Ther. 108, 168 (1953)], strychnine [J. Pharmacol. Exp. Ther. 129, 75 (1960)], bemegride, nicotine and 4-aminopyridine. The test compounds were orally administered in 3 doses, to 10 male CFLP mice per dose.

male CFLP mice [4] = experiment: Anticonvulsive effect in mice, pentetrazole; type: in vivo; details: Mus musculus, po, read-out: ED50 p.o., Pentetrazole
Experimental: as §2

CFLP mice = experiment: Inclined screen test in mice; type: in vivo; details: Mus musculus, ip, read-out: ED50 i.p., inclined screen test
Text: In Randall's inclined screen test [J. Pharmacol. Exp. Ther. 129, 163 (1960)] the compounds were applied in 3 i.p. doses to 10 CFLP mice per dose.

mice [5] = experiment: Rotarod test in mice; type: in vivo; details: Mus musculus, ip, read-out: ED50 i.p., rotarod test
Text: The rotarod test was used to measure muscular tone and motor co-ordination [J. Am. Pharm. Assoc. 46, 208 (1957)].

cats [6] = experiment: Effect on spinal (polysynaptic) flexor reflexes in chloralose anaesthetized cats; type: in vivo; details: Felis catus, iv
Text: Res. Comm. 20, S1, 141 (1988)].

Acute toxicity in mice = details: mouse, in vivo
Experimental: The cause of mortality was respiratory insufficiency developing within 1 to 2 hours after i.p. administration and within 10 to 20 hours after oral application.

mice [7] = experiment: Protection against methamphetamine-induced dopaminergic neurotoxicity, in mice; type: in vivo; details: METH 2×20 mg/kg i.p., Example 128 3×5 mg/kg i.p., MK-801 3×2.5 mg/kg i.p.
Experimental: High doses of methamphetamine (2×20 mg/kg i.p.) decrease the striatal level of dopamine, which can be prevented by glutamate antagonists, e.g. the NMDA-antagonist MK-801 [Science 243, 398 (1989)].

AMPA receptors = experiment: Inhibition of synaptic field potentials in rat neocortex slices; type: cell-based
Text: Similarly as in hippocampal CA1 area, glutamate is the main excitatory transmitter in the neocortex, and dominantly AMPA receptors are involved in mediation of synaptic responses evoked by stimulation of the white matter and recorded from the area adjacent to the site of stimulation [J. Neurophysiol. 64, 1282 (1990)]. The inhibitory effect on such field potentials was studied in rat neocortex slices, maintained in Vitro, according to Fletcher et al. [Br. J. Pharmacol. 95, 585 (1988)].

AMPA receptor = experiment: Inhibition of quisqualate induced DC potentials in rat neocortex slices; type: cell-based
Experimental: The AMPA antagonist effect was tested in rat neocortex slices by using a method similar to that of Harrison and Simmonds [Br. J. Pharmacol. 84, 381 (1985)].

NMDA [8] = experiment: NMDA induced responses (DC potentials) in rat neocortex slices; type: cell-based
male CFLP mice [9] = experiment: Anticonvulsive effect in mice, strychnine; type: in vivo; details: Mus musculus, po, read-out: ED50 p.o., Strychnine
Experimental: as §2

male CFLP mice [10] = experiment: Anticonvulsive effect in mice, bemegride; type: in vivo; details: Mus musculus, po, read-out: ED50 p.o., Bemegride
Experimental: as §2

male CFLP mice [11] = experiment: Anticonvulsive effect in mice, nicotine; type: in vivo; details: Mus musculus, po
Experimental: as §2

male CFLP mice [12] = experiment: Anticonvulsive effect in mice, 4-aminopyridine; type: in vivo; details: Mus musculus, po, read-out: ED50 p.o., 4-AP (4-aminopyridine)
Experimental: as §2

cats [13] = experiment: Effects on spinal root reflex potentials in spinalized and immobilized cats; type: in vivo; details: Felis catus, iv
Experimental: The effect of compound of Example 15(16) on the spinal root potentials in cats was tested in spinalized and immobilized animals [Neuropharmacology 21, 161 (1989)].

NMDA [14] = experiment: NMDA evoked spreading depression in isolated chicken retina; type: cell-based; details: spreading depression evoked by 100 μM NMDA
Experimental: as §1

[15] = tested on: [^3 H]-AMPA specific binding sites in CNS membrane preparations; details: Neuroreport 5, 93 (1993); cited from earlier work
[16] = tested on: [^3 H]-kainate specific binding sites in CNS membrane preparations; details: Neuroreport 5, 93 (1993); cited from earlier work
[17] = * <20% inhibition at the highest dose applied, read-out: ED50, DRP (dorsal root potential)
[18] = * <20% inhibition at the highest dose applied, read-out: ED50, DRR (dorsal root reflex)
[19] = read-out: ED50, MSR (monosynaptic ventral root reflex)
[20] = read-out: ED50, PSR (polysynaptic ventral root reflex)

SMILES | IC50 (AMPA/kainate receptors) [µM] | IC50 [1] [µM] | IC50 [2] [µM] | ED50 (male CFLP mice [3]) [mg/kg] | ED50 (male CFLP mice [4]) [mg/kg] | ED50 (CFLP mice) [mg/kg] | ED50 (mice [5]) [mg/kg] | ED50 (cats [6]) [mg/kg] | LD50 (Acute toxicity in mice; ip, read-out: LD50 i.p.) [mg/kg] | LD50 (Acute toxicity in mice; po, read-out: LD50 p.o.) [mg/kg] | ED50 (male CFLP mice [9]) [mg/kg] | ED50 (male CFLP mice [11]) [mg/kg] | other results
CNC(=O)N1N=C(c2ccc(N)cc2)c2cc3c(cc2CC1C)OCO3 (single isomer, unassigned; (-)) [Example 123, (-)-1-(4-Aminophenyl)-3-methylcarbamoyl-4-methyl-7,8-methylenedioxy-3,4-dihydro-5H-2,3 benzodiazepine] | 3.9 | 1.7 | 0.5 | 8.4 | 13.8 | 8.8 | 1.9 | 0.05 | ~50 | 75 to 100 |  |  | 
CC(=O)N1N=C(c2ccc(N)cc2)c2cc3c(cc2CC1C)OCO3 (single isomer, unassigned; (-)) [Example 128, (-)-1-(4-Aminophenyl)-3-acetyl-4-methyl-7,8-methylenedioxy-3,4-dihydro-5H-2,3-benzodiazepine] | 7.8 | 1 | 2.7 |  |  |  |  | 0.13 | 73.5 | ~100 |  |  | ED50 (male CFLP mice [3]; mice, p.o.): 5.3 mg/kg; ED50 (male CFLP mice [4]; mice, p.o.): 16.8 mg/kg; ED50 (mice [5]; mice, i.p.): 2.3 mg/kg; (DOPAC + HVA)/DA, % (mice [7]; % of saline group): 144%; DA, % (mice [7]; % of saline group): 48%; (DOPAC + HVA)/DA, mean ± SE (mice [7]; striatal dopamine turnover): 0.36 ± 0.10; DA, μg/g tissue, mean ± SE (mice [7]; striatal dopamine): 7.17 ± 1.89 μg/g tissue
N#Cc1cc2[nH]c(=O)c(=O)[nH]c2cc1[N+](=O)[O-] [CNQX, 1,2,3,4-tetrahydro-7-nitro-2,3-dioxo-quinoxalinecarbonitrile, reference compound] | 1.4 |  |  |  |  |  |  |  |  |  |  |  | 
CC(=O)N1N=C(c2ccc(N)cc2)c2cc3c(cc2CC1C)OCO3 (stereo not shown) [Example 15 (16), 1-(4-Aminophenyl)-3-acetyl-4-methyl-7,8-methylenedioxy-3,4-dihydro-5H-2,3-benzodiazepine] | 24.8 | 3.7 | 5.1 |  |  |  |  | 0.36 | 127 | 130 | > 200 | 45 | IC50 (AMPA receptors): 21.5 µM; Inhibition of induced field potentials in % of control (AMPA receptors; concentration 10 μM): 30%; Inhibition of induced field potentials in % of control (AMPA receptors; concentration 20 μM): 47%; Inhibition of induced field potentials in % of control (AMPA receptors; concentration 40 μM): 69%; Inhibition of induced field potentials in % of control (AMPA receptors; concentration 80 μM): 82%; Activity relative to the reference compound GYKI 52466 in inhibiting the response to quisqualate (AMPA receptor; 2-minute perfusion with 10 μM of quisqualate, corresponding concentrations): twice as active; Effect on the responses induced by NMDA (NMDA [8]): failed to affect; ED50 (male CFLP mice [3]; mice, p.o.): 12 mg/kg; ED50 (male CFLP mice [4]; mice, p.o.): 46.8 mg/kg; ED50 (male CFLP mice [10]; mice, p.o.): 16 mg/kg; ED50 (male CFLP mice [12]; mice, p.o.): 9 mg/kg; ED50 (CFLP mice; mice, i.p.): 23.5 mg/kg; ED50 (mice [5]; mice, i.p.): 3.7 mg/kg; ED50 (cats [13]; [17]): > 1.6 mg/kg; ED50 (cats [13]; [18]): > 1.6 mg/kg; ED50 (cats [13]; [19]): 0.69 mg/kg; ED50 (cats [13]; [20]): 0.77 mg/kg
CNC(=O)N1N=C(c2ccc(N)cc2)c2cc3c(cc2CC1C)OCO3 (stereo not shown) [Example 98, 1-(4-Aminophenyl)-3-methylcarbamoyl-4-methyl-7,8-methylenedioxy-3,4-dihydro-5H-2,3-benzodiazepine] | 12.6 |  |  | 17.1 | 21.3 | 18 | 8.6 | 0.14 | 93.1 | 96.6 | 29 | 19 | ED50 (male CFLP mice [10]): 11 mg/kg; ED50 (male CFLP mice [12]): 13.5 mg/kg
CC1=NN=C(c2ccc(N)cc2)c2cc3c(cc2C1)OCO3 [GYKI 52466, 1-(4-aminophenyl)-4-methyl-7,8-methylenedioxy-5H-2,3-benzodiazepine, reference compound] | 31.7 | 6.3 | 9.5 | 38 | 115 | 47 | 24 | 0.9 |  |  | 87 | 70 | IC50 (AMPA receptors): 30 µM; Inhibition of induced field potentials in % of control (AMPA receptors; concentration 10 μM): 22%; Inhibition of induced field potentials in % of control (AMPA receptors; concentration 20 μM): 39%; Inhibition of induced field potentials in % of control (AMPA receptors; concentration 40 μM): 62%; Inhibition of induced field potentials in % of control (AMPA receptors; concentration 80 μM): 73%; Inhibition of DC-potential changes induced by perfusion of quisqualate (AMPA receptor; concentration range of 10-50 μM): dose-dependently inhibited; Effect on the responses induced by NMDA (NMDA [8]): failed to affect; NMDA antagonist effect, times weaker than AMPA antagonist effect (NMDA [14]): ≥ 10 times; ED50 (male CFLP mice [10]): 73 mg/kg; ED50 (male CFLP mice [12]): 43 mg/kg; ED50 (cats [13]; [17]): > 4 mg/kg; ED50 (cats [13]; [18]): > 4 mg/kg; ED50 (cats [13]; [19]): 2.2 mg/kg; ED50 (cats [13]; [20]): 2.3 mg/kg; Displacement of [3H]-AMPA from specific binding sites [15]: displace neither; Displacement of [3H]-kainate from specific binding sites [16]: displace neither
NS(=O)(=O)c1cccc2c1c([N+](=O)[O-])cc1[nH]c(=O)c(=O)[nH]c12 [NBQX, 1,2,3,4-tetrahydro-6-nitro-2,3-dioxo-benzo(f)quinoxaline-7-sulfonamide, reference compound] |  |  |  |  |  |  |  | 0.91 |  |  |  |  | 
